Among the data in patent US10125119B2, “Series of resveratrol-derivative fluorescently labeled molecules and synthesis method thereof” (Hangzhou Normal University, priority 2017, dated 2018) are melting point values, retold here.

Usually melting point stands for the temperature, or range, at which the solid turns liquid.

Each structure is given as a SMILES string.

`COc1cc(/C=C/c2ccc(Oc3nc(Cl)nc(-n4cc(-c5ccc(C(=C(c6ccccc6)c6ccccc6)c6ccccc6)cc5)nn4)n3)cc2)cc(OC)c1` [Product (I)] gave a melting point of 165 to 166 °C.
